# Experimental data as given in patent US20130065897A1, “COMPOUNDS, PREPARATION AND USES THEREOF” (PETER MACCALLUM CANCER INSTITUTE, priority 2009, published 2013).
# Read-outs that look alike come from different tables or passages of the source.
# Assays:
# Format in all cases: cell-based
# KHYG-1 NK cells = assay: Toxicity to KHYG-1 NK cells (trypan blue viability); settings: viable cells as percentage of total (% viability), 18 to 24 hours
# Experimental: Toxicity to KHYG-1 NK Cells
# KHYG-1 cells were washed and resuspended in RPMI+0.1% BSA at 4×10^5 cells/ml and 50 μl of KHYG-1 cells were dispensed to each well of a 96-well V-bottom plate. Test compounds were added to KHYG-1 cells at a concentration of 20 μM and incubated at RT for 20 minutes. 100 μL of RPMI 0.1% BSA was added and the cells were incubated for 4 hours at 37° C. then washed ×3 in RPMI+0.1% BSA. Cells were then resuspended in 200 μl of complete medium and incubated for 18 to 24 hours at 37° C. Trypan blue was added to each well and viable (clear) cells counted as a percentage of total (clear+blue) cell number (% viability).
# [1] = test system: KHYG-1 NK cell-mediated lysis of K562 cells; assay: Inhibition of KHYG-1 NK cell-mediated lysis of K562 cells (51Cr release); settings: K562 target cells, Effector:Target 2:1, 4 hours 37° C.
# Experimental: Inhibition of KHYG-1 NK Cell-Mediated lysis of K562 Cells
# KHYG-1 cells were washed and resuspended in RPMI+0.1% BSA at 4×10^5 cells/ml and 50 μl of KHYG-1 cells were dispensed to each well of a 96-well V-bottom, plate. Test compounds were added to KHYG-1 cells at various concentrations up to 20 μM and incubated at RT for 20 minutes. 1×10^6 K562 target cells were labelled with 75 μCi ^51Cr in 200 μl RPMI for 90 mins at 37° C., cells were washed as described above and resuspended in 5 ml RPMI+0.1% BSA. 50 μl of ^51Cr labelled K562 leukemia target cells were added to each well of the KHYG-1 plate (Effector:Target 2:1) and incubated at 37° C. for 4 hours. ^51Cr release was assayed using a Skatron Harvesting Press and radioactivity estimated on a Wallac Wizard 1470 Automatic Gamma counter (Turku, Finland). The percentage of specific cytotoxicity was calculated by the formula: […]
# and expressed as the mean of triplicate assays +/−standard error of the mean.
# recombinant perforin = recombinant perforin (UniProt P10820)
# Experimental: Inhibition of Perforin-Mediated Lysis of Jurkat Cells
# The ability of the compounds to inhibit the lysis of nucleated (Jurkat T lymphoma) cells in the presence of 0.1% BSA, as measured by release of ^51Cr was measured. Jurkat target cells were labelled by incubation in medium with 100 μCi ^51Cr for one hour. The cells were then washed three times to remove unincorporated isotope and re-suspended at 1×10^5 cells per mL in RPMI buffer supplemented with 0.1% BSA. […] The supernatant was collected and assessed for its radioactive content on a gamma counter (Wallac Wizard 1470 automatic gamma counter). Each data point was performed in triplicate and an IC50 was calculated from the range of concentrations described to above.
# [2] = read-out: Jurkat IC50; recombinant perforin pre-incubated 30 min with compound; 51Cr-labelled Jurkat cells, 0.1% BSA, 37° C. 4 hours
# [3] = recombinant perforin pre-incubated 30 min with compound; 51Cr-labelled Jurkat cells, 0.1% BSA, 37° C. 4 hours; read-out: Jurkat IC50
# recombinant perforin, sequence (P10820 whole entry): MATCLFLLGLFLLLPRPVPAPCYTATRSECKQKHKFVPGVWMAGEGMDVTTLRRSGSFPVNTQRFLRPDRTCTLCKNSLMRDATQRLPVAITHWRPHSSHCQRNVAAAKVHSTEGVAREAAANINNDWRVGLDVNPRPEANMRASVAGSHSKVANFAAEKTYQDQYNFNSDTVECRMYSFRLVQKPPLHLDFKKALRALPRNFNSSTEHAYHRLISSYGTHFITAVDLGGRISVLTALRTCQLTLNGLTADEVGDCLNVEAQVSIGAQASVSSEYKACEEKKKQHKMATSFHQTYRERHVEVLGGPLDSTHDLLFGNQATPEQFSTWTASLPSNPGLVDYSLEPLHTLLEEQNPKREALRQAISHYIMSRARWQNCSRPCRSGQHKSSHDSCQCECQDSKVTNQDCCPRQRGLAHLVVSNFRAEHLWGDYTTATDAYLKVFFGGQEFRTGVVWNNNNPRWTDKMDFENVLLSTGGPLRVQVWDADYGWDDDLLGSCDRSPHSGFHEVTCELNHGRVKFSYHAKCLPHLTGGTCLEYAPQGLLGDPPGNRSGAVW
Structure (SMILES),percent viable KHYG-1 cells (trypan blue) at 20 μM (KHYG-1 NK cells),inhibition at 20 µM [1],IC50 (recombinant perforin; [2]),IC50 (recombinant perforin; [3]),Inhibition of KHYG-1 at 20 μM [1]
"O=C1NC(=S)N/C1=C/c1ccc(-c2ccc3c(c2)COC3=O)s1 [Cmpd 2, (E,Z)-5-((5-(1-Oxo-1,3-dihydroisobenzofuran-5-yl)thiophen-2-yl)methylene)-2-thioxoimidazolidin-4-one]",83%,52%,0.76 µM,–,–
O=C1NC(=S)N/C1=C/c1ccc(-c2ccc3c(c2)COC3=O)cn1 [Cmpd 7],–,–,–,2 µM,–
"O=C1NC(=S)N/C1=C/c1ccc2cc(-c3ccc4c(c3)COC4=O)ccc2n1 [Cmpd 14, (E,Z)-5-((6-(1-Oxo-1,3-dihydroisobenzofuran-5-yl)quinolin-2-yl)methylene)-2-thioxoimidazolidin-4-one]",81%,–,–,0.47 µM,56%
"NC(=O)c1ccc(-c2ccc(/C=C3/NC(=S)NC3=O)s2)cc1 [Cmpd 16, (E,Z)-4-(5-((5-oxo-2-thioxoimidazolidin-4-ylidene)methyl)thiophen-2-yl)benzamide]",52%,80%,1.56 µM,–,–
"NC(=O)c1cccc(-c2ccc(/C=C3/NC(=S)NC3=O)s2)c1 [Cmpd 17, (E,Z)-3-(5-((5-Oxo-2-thioxoimidazolidin-4-ylidene)methyl)thiophen-2-yl)benzamide]",100%,35%,0.79 µM,–,–
"CC(=O)OCc1ccc(-c2ccc(/C=C3/NC(=S)NC3=O)s2)cc1 [Cmpd 18, (E,Z)-4-(5-((5-Oxo-2-thioxoimidazolidin-4-ylidene)methyl)thiophen-2-yl)benzyl acetate]",100%,98%,3.04 µM,–,–
"COC(=O)c1ccc(-c2ccc(/C=C3/NC(=S)NC3=O)s2)cc1 [Cmpd 19, (E,Z)-Methyl 4-(5-((5-oxo-2-thioxoimidazolidin-4-ylidene)methyl)thiophen-2-yl)benzoate]",95%,30%,1.62 µM,–,–
"CC(=O)c1ccc(-c2ccc(/C=C3/NC(=S)NC3=O)s2)cc1 [Cmpd 20, (E,Z)-5-((5-(4-Acetylphenyl)thiophen-2-yl)methylene)-2-thioxoimidazolidin-4-one]",100%,90%,1.67 µM,–,–
"COC(=O)c1ccc(-c2ccc(/C=C3/NC(=S)NC3=O)s2)cc1C [Cmpd 21, (E,Z)-Methyl 2-methyl-4-(5-((5-oxo-2-thioxoimidazolidin-4-ylidene)methyl)thiophen-2-yl)benzoate]",–,92%,3.03 µM,–,–
"O=C1NC(=S)N/C1=C/c1ccc(-c2cccc(Cl)c2)s1 [Cmpd 23, (E,Z)-5-((5-(3-Chlorophenyl)thiophen-2-yl)methylene)-2-thioxoimidazolidin-4-one]",55%,92%,7.19 µM,–,–
"O=C1NC(=S)N/C1=C/c1ccc(-c2ccc(Cl)cc2)s1 [Cmpd 24, (E,Z)-5-((5-(4-Chlorophenyl)thiophen-2-yl)methylene)-2-thioxoimidazolidin-4-one]",89%,59%,5.22 µM,–,–
"O=C1NC(=S)N/C1=C/c1ccc(-c2ccncc2)s1 [Cmpd 25, (E,Z)-5-((5-(Pyridin-4-yl)thiophen-2-yl)methylene)-2-thioxoimidazolidin-4-one]",–,–,10.1 µM,–,–
CSc1ccc(-c2ccc(/C=C3/NC(=S)NC3=O)s2)cc1 [Cmpd 27],83%,43%,1.15 µM,–,–
"CS(=O)(=O)c1ccc(-c2ccc(/C=C3/NC(=S)NC3=O)s2)cc1 [Cmpd 28, (E,Z)-5-((5-(4-(Methylsulfonyl)phenyl)thiophen-2-yl)methylene)-2-thioxoimidazolidin-4-one]",–,–,13.8 µM,–,–
"O=C1NC(=S)N/C1=C/c1ccc(-c2ccc(F)cc2)s1 [Cmpd 29, (E,Z)-5-((5-(4-Fluorophenyl)thiophen-2-yl)methylene)-2-thioxoimidazolidin-4-one]",–,–,6.69 µM,–,–
"O=C1NC(=S)N/C1=C/c1ccc(-c2ccc(F)c(F)c2)s1 [Cmpd 30, (E,Z)-5-((5-(3,4-Difluorophenyl)thiophen-2-yl)methylene)-2-thioxoimidazolidin-4-one]",–,–,4.59 µM,–,–
"O=C1NC(=S)N/C1=C/c1ccc(-c2cccc(F)c2)s1 [Cmpd 31, (E,Z)-5-((5-(3-Fluorophenyl)thiophen-2-yl)methylene)-2-thioxoimidazolidin-4-one]",–,–,10.8 µM,–,–
"O=C1NC(=S)N/C1=C/c1ccc(-c2ccc(Br)cc2)s1 [Cmpd 32, (E,Z)-5-((5-(4-Bromophenyl)thiophen-2-yl)methylene)-2-thioxoimidazolidin-4-one]",83%,66%,1.69 µM,–,–
"CS(=O)(=O)Nc1ccc(-c2ccc(/C=C3/NC(=S)NC3=O)s2)cc1 [Cmpd 33, (E,Z)-N-(4-(5-((5-Oxo-2-thioxoimidazolidin-4-ylidene)methyl)thiophen-2-yl)phenyl)methanesulfonamide]",–,32%,7.7 µM,–,–
"O=C1NC(=S)N/C1=C/c1ccc(-c2ccc(C(=O)NCCO)cc2)s1 [Cmpd 42, (E,Z)-N-(2-Hydroxyethyl)-4-(5-((5-oxo-2-thioxoimidazolidin-4-ylidene)methyl)thiophen-2-yl)benzamide]",–,42%,3.64 µM,–,–
"O=C1NC(=S)N/C1=C/c1ccc(-c2ccc(C(=O)NCCCO)cc2)s1 [Cmpd 44, (E,Z)-N-(3-Hydroxypropyl)-4-(5-((5-oxo-2-thioxoimidazolidin-4-ylidene)methyl)thiophen-2-yl)benzamide]",–,52%,4.35 µM,–,–
"O=C1NC(=S)NC1=Cc1ccc(-c2ccc3c(c2)CNC3=O)cc1 [Cmpd 48, (E,Z)-5-(4-((5-Oxo-2-thioxoimidazolidin-4-ylidene)methyl)phenyl)isoindolin-1-one]",–,16%,5.55 µM,–,–
"CN1Cc2cc(-c3ccc(/C=C4/NC(=S)NC4=O)s3)ccc2C1=O [Cmpd 61, (E,Z)-2-Methyl-5-(5-((5-oxo-2-thioxoimidazolidin-4-ylidene)methyl)thiophen-2-yl)isoindolin-1-one]",76%,83%,–,–,–
"O=C1NC(=S)N/C1=C/c1ccc(-c2ccc3c(c2)CN(CC(O)CO)C3=O)s1 (stereo not drawn) [Cmpd 78, (E,Z)-2-(2,3-Dihydroxypropyl)-5-(5-((5-oxo-2-thioxoimidazolidin-4-ylidene)methyl)thiophen-2-yl)isoindolin-1-one]",–,19%,1.26 µM,–,–
"CN1CCc2ccc(-c3ccc(/C=C4\NC(=S)NC4=O)s3)cc2C1=O [Cmpd 83, (E,Z)-2-Methyl-7-(5-((5-oxo-2-thioxoimidazolidin-4-ylidene)methyl)thiophen-2-yl)-3,4-dihydroisoquinolin-1(2H)-one]",–,91%,4.76 µM,–,–
"CN1CCc2cc(-c3ccc(/C=C4\NC(=S)NC4=O)s3)ccc2C1=O [Cmpd 84, (E,Z)-2-Methyl-6-(5-((5-oxo-2-thioxoimidazolidin-4-ylidene)methyl)thiophen-2-yl)-3,4-dihydroisoquinolin-1(2H)-one]",–,72%,2.33 µM,–,–
